Entries after “also recorded” stand apart in the source; their conditions may differ.
Assays:
[1] = tested on: dendritic cells; assay: 48 hr response of wild-type and Caspase-1−/− mice to topical FITC+DBP (flow cytometry of draining lymph node); type: in vivo; conditions: vs wild-type
Method: We also tested the relevance of a second dendritic cell activation system that intersects with TLR, the NALP inflammasome (reviewed in Franchi, L. et al. 2009 “The inflammasome: a Caspase-1-activation platform that regulates immune responses and disease pathogenesis” Nature Immunology 10:241-247).
Mice were treated topically on the shaved abdominal skin with FITC dissolved in acetone (5 mg/ml) combined with an equal volume of DBP. Two days later, the skin draining inguinal lymph node cells were stained for immunofluorescent flow cytometry using monoclonal antibodies specific for CD19, CD11c, CD40, I-Ab, CD80, and CD86 obtained from BD Pharmingen, and detected using a Becton Dickenson FACSCalibur followed by analysis of the data using FlowJo software.

[2] = tested on: ear skin; assay: Cutaneous lymphoid stress response gene expression after topical DBP on ear skin; type: in vivo; conditions: ear skin of C57B1/6 mice
From the text: (§1) The cutaneous lymphoid stress response bears a strong resemblance to the effects of topical DBP. DBP is required for the induction of contact hypersensitivity to FITC in mice, a form of allergic response. Topical DBP induces the migration of Langerhans cells from the epidermis to draining lymph nodes. And, topical DBP acts as an adjuvant for antigens injected into the skin, including endotoxin-free OVA. One might expect, therefore, that topical DBP would cause the same effects as tape stripping or occlusive skin patch immunization. To our surprise, none of the effects that characterize the DETC-dependent cutaneous lymphoid stress-surveillance response are found in the response to DBP.

[3] = tested on: OVA; assay: Antibody response to endotoxin-free OVA injected intradermally followed by topical DBP; type: in vivo, B6 mice; conditions: endotoxin-free OVA i.d. followed by topical DBP
From the text: as §1

[4] = tested on: OVA; assay: Immune response to intradermal peptide (SIINFEKL) or protein (OVA) antigen, also alum-adsorbed OVA, with topical DBP; type: in vivo, mice
From the text: Topical DBP induced a 16-fold increase in the IgG1 Ab response to OVA adsorbed to alum and increased the IgG2c response 26-fold.

[5] = tested on: tumor; set-up: species or system mice; conditions: mouse, in vivo
[6] = tested on: Fluzone; set-up: species or system mice; conditions: mouse, in vivo
[7] = tested on: Fluzone; set-up: species or system C57BL/6 mice; conditions: mouse, in vivo
[8] = tested on: Murine Skin Dendritic Cells; assay: Activation of murine skin dendritic cells by DBP vs. DBlT (DC per lymph node, CD86); type: in vivo; conditions: topical treatment
[9] = tested on: skin; conditions: in vivo
[10] = tested on: skin; assay: Skin histology after multiple topical applications of DBP; conditions: multiple topical doses

`CCCCOC(=O)c1ccccc1C(=O)OCCCC` [DBP, dibutylphthalate] was tested, and the “dendritic cell response in Casp−/− mice” value [1] was “undiminished”, the “expression of H60a” value [2] was “no statistically significant increase” and the “expression of Il-13” value [2] was “no statistically significant increase”. For the same compound, the “expression of Il-25” value [2] was “no statistically significant increase”, the “expression of KLrk1 (encodes NKG2D)” value [2] was “no statistically significant increase” and the “expression of Rae-1” value [2] was “no statistically significant increase; also recorded: actually diminished”. For the same compound, the “antigen-specific IgE” value [3] was “undetectable”, the “antigen-specific IgG1 antibodies” value [3] was “significantly elevated” and the “antigen-specific IgG2b antibodies” value [3] was “significantly elevated”. The “antigen-specific IgG2c antibodies” value [3] was “significantly elevated”, the “T cell and antibody responses” value ([4]; DBP on skin of mice injected intradermally with adjuvant-free SIINFEKL or OVA) was “dramatic increase” and the survival of anaphylaxis ([4]; high dose of alum-adsorbed OVA plus topical DBP, 60% succumbed without DBP) was “all of the mice survived”. For the same compound, the “increase in the IgG1 Ab response to OVA adsorbed to alum” value ([4]; topical DBP) was 16 fold, the “increase in the IgG2c response to OVA adsorbed to alum” value ([4]; topical DBP) was 26 fold and the tumor-specific immunity [5] was “Protective and therapeutic tumor-specific immunity were induced”. The “IgA Ab in bronchoalveolar lavage” value [6] was “highly significantly increased”, the “IgA Ab in bronchoalveolar lavage, persistence” value [6] was “remained undiminished” and the “Serum antibodies of all IgG isotypes” value [6] was “highly significantly increased”. The “HAI titer / adjuvant effect with the same dose of Fluzone” value [7] was “majorly improved”, the “MFI CD86” value [8] was 618 (95) and the “histologic evidence of contact hypersensitivity” value [9] was “no histologic evidence of contact hypersensitivity”. For the same compound, the “histologic evidence of inflammation in the skin” value [10] was “no histologic evidence of inflammation”.

Reference: patent US20150307938A1, “METHOD TO IDENTIFY A NOVEL CLASS OF IMMUNOLOGIC ADJUVANTS” (Lancell, L.L.C., priority 2011, published 2015)
